According to patent publication US8426437B2, “Pyrroloquinoline derivatives and their use as protein kinases inhibitors” (Pierre Fabre Medicament, priority 2005, dated 2013):
Counter-ions that a name gives are not always drawn.

Experiments:
[1] = biological target: T1, RET (Homo sapiens, UniProt P07949); assay: Inhibition of RET kinase activity, recombinant RET method (Kinase-Glo); assay type: biochemical; conditions: RET 2 μg/ml, poly-EY4 substrate, 20 μM ATP, two hours at 30° C.
T1 construct: purchased Upstate 14-570MG
Outline: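 Recombinant RET at 2 μg/ml in 20 mM MOPS/NaOH pH 7.0, 1 mM EDTA, 5% glycerol, 0.01% Brij35, 0.1% 2-mercaptoethanol, 1 mg/ml BSA; compounds 10 nM–30 μM final.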

[2] = biological target: T2, PIM-1 (Homo sapiens, UniProt P11309); assay: Inhibition of kinase PIM-1 (Kinase-Glo); assay type: biochemical; conditions: PIM-1 0.625 μg/ml, 10 μM ATP, forty minutes at 30° C.
T2 construct: purchased Upstate 14-573
Experimental: Protein PIM-1 (Upstate #14-573 batch 25864U) is incubated at a concentration of 0.625 μg/ml in a buffer containing 8 mM of MOPS/NaOH pH7, 0.2 mM EDTA, 5 mM MgAc (Sigma #229768), 0.01% Triton Tx100, in the presence of 70 μM of peptide substrate S6 Kinase/Rsk2 (Upstate #12-243), and 10 μM of ATP.
The dilution buffer for PIM-1 is as follows: 20 mM MOPS/NaOH pH7, 1 mM EDTA, 5% glycerol, 0.01% Brij35, 0.1% 2-mercapto, 1 mg/ml BSA
The compound to be tested is first added to the enzyme to give a reaction volume of 50 μl. The dilution of the compounds of the invention is distributed so as to obtain a scale of final concentrations between 10 nM and 30 μM.
After incubation of the reaction mixture for forty minutes at 30° C., the level of ATP that remains is assayed using the Kinase-Glo Luminescent Kinase Assay (Promega #V6712) according to the conditions recommended by the supplier. The luminescence induced is read in a plate reader (Envision-Perkin Elmer).

T2 sequence (P11309 whole entry): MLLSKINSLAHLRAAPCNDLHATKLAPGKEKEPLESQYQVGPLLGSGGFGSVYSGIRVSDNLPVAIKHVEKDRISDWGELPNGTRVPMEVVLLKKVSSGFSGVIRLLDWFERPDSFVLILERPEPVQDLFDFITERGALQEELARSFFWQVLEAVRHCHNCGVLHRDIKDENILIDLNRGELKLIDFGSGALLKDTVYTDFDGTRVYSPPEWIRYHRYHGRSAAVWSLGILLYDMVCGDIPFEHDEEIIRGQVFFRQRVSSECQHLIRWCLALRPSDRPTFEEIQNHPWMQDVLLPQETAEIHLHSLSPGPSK
T1 sequence (P07949 29-1114): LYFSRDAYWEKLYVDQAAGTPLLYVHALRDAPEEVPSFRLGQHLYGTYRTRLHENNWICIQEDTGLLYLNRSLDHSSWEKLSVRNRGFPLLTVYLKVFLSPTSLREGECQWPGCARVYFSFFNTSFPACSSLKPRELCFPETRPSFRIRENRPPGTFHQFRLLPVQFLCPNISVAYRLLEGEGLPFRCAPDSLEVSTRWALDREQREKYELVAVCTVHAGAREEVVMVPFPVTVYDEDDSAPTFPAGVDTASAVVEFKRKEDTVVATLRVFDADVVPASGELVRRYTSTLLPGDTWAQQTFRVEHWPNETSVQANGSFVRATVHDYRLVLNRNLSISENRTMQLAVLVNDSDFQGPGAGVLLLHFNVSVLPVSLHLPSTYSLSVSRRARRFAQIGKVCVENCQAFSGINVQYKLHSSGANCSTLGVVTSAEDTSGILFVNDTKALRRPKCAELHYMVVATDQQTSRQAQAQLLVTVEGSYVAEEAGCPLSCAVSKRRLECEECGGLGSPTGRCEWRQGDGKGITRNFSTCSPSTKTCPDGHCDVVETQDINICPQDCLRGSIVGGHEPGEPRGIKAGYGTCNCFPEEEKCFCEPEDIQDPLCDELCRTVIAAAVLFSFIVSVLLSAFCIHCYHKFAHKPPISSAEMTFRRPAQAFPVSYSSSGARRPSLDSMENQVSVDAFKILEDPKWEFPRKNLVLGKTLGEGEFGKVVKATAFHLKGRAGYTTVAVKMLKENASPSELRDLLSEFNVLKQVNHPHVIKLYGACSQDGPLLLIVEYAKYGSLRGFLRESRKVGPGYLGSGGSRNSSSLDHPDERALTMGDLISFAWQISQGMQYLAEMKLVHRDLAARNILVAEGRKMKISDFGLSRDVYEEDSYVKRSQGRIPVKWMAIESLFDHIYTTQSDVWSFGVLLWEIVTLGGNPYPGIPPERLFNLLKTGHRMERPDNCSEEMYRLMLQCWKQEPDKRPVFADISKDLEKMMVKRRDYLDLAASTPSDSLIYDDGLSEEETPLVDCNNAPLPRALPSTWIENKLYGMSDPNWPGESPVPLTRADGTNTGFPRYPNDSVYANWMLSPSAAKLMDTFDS

| Structure (SMILES) | IC50 [1] [µM] | IC50 [2] [µM] |
| --- | --- | --- |
| CCOC(=O)c1c[nH]c2c(=O)[nH]c3ccc([N+](=O)[O-])cc3c12 [Compound 66, 8-Nitro-4-oxo-4,5-dihydro-3H-pyrrolo[2,3-c]quinoline-1-ethyl carboxy late] | 1 to 10 | 1 to 10 |
| CCOC(=O)c1c[nH]c2c(=O)[nH]c3ccc(-c4cccc(CNC)c4)cc3c12 [Compound 241, 8-(3-Methylaminomethyl-phenyl)-4-oxo-4,5-dihydro-3H-pyrrolo[2,3-c]quinoline-1-ethyl carboxylate] | 0.1 to 1 | 1 to 10 |
| COC(=O)c1c[nH]c2c(=O)[nH]c3ccc(S(=O)(=O)N4CCN(C)CC4)cc3c12 [Compound 95, 8-(4-Methyl-piperazine-1-sulfonyl)-4-oxo-4,5-dihydro-3H-pyrrolo[2,3-c]quinoline-1-methyl carboxylate] | 1 to 10 | 10 to 100 |
| O=C(OC1CCCC1)c1c[nH]c2c(=O)[nH]c3ccc(S(=O)(=O)NC4CCNCC4)cc3c12 [Compound 116, 4-Oxo-8-(piperidin-4-ylsulfamoyl)-4,5-dihydro-3H-pyrrolo[2,3-c]quinoline-1-cyclopentyl carboxylate] | < 0.1 | 1 to 10 |
| O=C(OCC1CCOC1)c1c[nH]c2c(=O)[nH]c3ccc(S(=O)(=O)NC4CCNCC4)cc3c12 (stereo not shown) [Compound 118, 4-Oxo-8-(piperidin-4-ylsulfamoyl)-4,5-dihydro-3H-pyrrolo[2,3-c]quinoline-1-methyltetrahydrofuran-3-yl carboxylate] | 0.1 to 1 | 10 to 100 |
| CCOC(=O)c1c[nH]c2c(=O)[nH]c3ccc(-c4ccnc(N(C)CCN(C)C)n4)cc3c12 [Compound 269, 8-{2-[(2-Dimethylamino-ethyl)-methyl-amino]-pyrimidin-4-yl}-4-oxo-4,5-dihydro-3H-pyrrolo[2,3-c]quinoline-1-ethyl carboxylate formate] | 1 to 10 | 1 to 10 |
| CCOC(=O)c1c[nH]c2c(=O)[nH]c3ccc(Br)cc3c12 [Compound 71, 8-Bromo-4-oxo-4,5-dihydro-3H-pyrrolo[2,3-c]quinoline-1-ethyl carboxylate] | 0.1 to 1 | 1 to 10 |
| CCOC(=O)c1c[nH]c2c(=O)[nH]c3ccc(SCc4ccccc4)cc3c12 [Compound 222, 8-Benzylsulfanyl-4-oxo-4,5-dihydro-3H-pyrrolo[2,3-c]quinoline-1-ethyl carboxylate] | 0.1 to 1 | 1 to 10 |
| CCOC(=O)c1c[nH]c2c(=O)[nH]c3ccc(S(=O)(=O)N(C)c4cccc(Cl)c4)cc3c12 [Compound 34, 8-[(3-Chlorophenyl)-methyl-sulfamoyl)-4-oxo-4,5-dihydro-3H-pyrrolo[2,3-c]quinoline-1-ethyl carboxylate] | 0.1 to 1 | 1 to 10 |
| CCOC(=O)c1c[nH]c2c(=O)[nH]c3ccc(-c4ccnc(N)n4)cc3c12 [Compound 261, 8-(2-Amino-pyrimidin-4-yl)-4-oxo-4,5-dihydro-3H-pyrrolo[2,3-c]quinoline-1-ethyl carboxylate] | 0.1 to 1 | 10 to 100 |
| CCOC(=O)c1c[nH]c2c(=O)[nH]c3ccc(-c4ccc(Cl)nc4)cc3c12 [Compound 259, 8-(6-Chloro-pyridin-3-yl)-4-oxo-4,5-dihydro-3H-pyrrolo[2,3-c]quinoline-1-ethyl carboxylate] | 1 to 10 | 1 to 10 |
| CCOC(=O)c1c[nH]c2c(=O)[nH]c3ccc(NC)cc3c12 [Compound 63, 8-Methylamino-4-oxo-4,5-dihydro-3H-pyrrolo[2,3-c]quinoline-1-ethyl carboxylate hydrochloride] | 1 to 10 | 10 to 100 |
| CCOC(=O)c1c[nH]c2c(=O)[nH]c3ccc(-c4ccccc4Cl)cc3c12 [Compound 229, 8-(2-Chlorophenyl)-4-oxo-4,5-dihydro-3H-pyrrolo[2,3-c]quinoline-1-ethyl carboxylate] | 0.1 to 1 |  |
| O=C(NCCCO)c1c[nH]c2c(=O)[nH]c3ccccc3c12 [Compound 85, N-(3-Hydroxy-propyl)-4-oxo-4,5-dihydro-3H-pyrrolo[2,3-c]quinoline-1-carboxamide] | 10 to 100 |  |
| CCOC(=O)c1c[nH]c2c(=O)[nH]c3ccc(S(=O)(=O)Nc4ccc(Cl)cc4)cc3c12 [Compound 11, 8-(4-Chlorophenylsulfamoyl)-4-oxo-4,5-dihydro-3H-pyrrolo[2,3-c]quinoline-1-ethyl carboxylate] | 0.1 to 1 |  |
| CCOC(=O)c1c[nH]c2c(=O)[nH]c3ccc(-c4cc(S(C)(=O)=O)ccc4N)cc3c12 [Compound 251, 8-(2-Amino-5-methanesulfonyl-phenyl)-4-oxo-4,5-dihydro-3H-pyrrolo[2,3-c]quinoline-1-ethyl carboxylate] | 0.1 to 1 |  |
| CCOC(=O)c1c[nH]c2c(=O)[nH]c3ccc(-c4ccc(S(C)(=O)=O)cc4)cc3c12 [Compound 245, 8-(4-Methanesulfonyl-phenyl)-4-oxo-4,5-dihydro-3H-pyrrolo[2,3-c]quinoline-1-ethyl carboxylate] | 1 to 10 |  |
| CCOC(=O)c1c[nH]c2c(=O)[nH]c3ccc(S(=O)(=O)Nc4ccc(O)cc4)cc3c12 [Compound 98, 8-(4-Hydroxy-phenylsulfamoyl)-4-oxo-4,5-dihydro-3H-pyrrolo[2,3-c]quinoline-1-ethyl carboxylate] | < 0.1 |  |
| CCOC(=O)c1c[nH]c2c(=O)[nH]c3ccc(-c4csc(CSc5ccccc5)n4)cc3c12 [Compound 276, 4-Oxo-8-(2-phenylsulfanylmethyl-thiazol-4-yl)-4,5-dihydro-3H-pyrrolo[2,3-c]quinoline-1-ethyl carboxylate] | 0.1 to 1 |  |
| C#CCN(C)S(=O)(=O)c1ccc2[nH]c(=O)c3[nH]cc(C(=O)OCCC)c3c2c1 [Compound 134, 8-(Methyl-prop-2-ynyl-sulfamoyl)-4-oxo-4,5-dihydro-3H-pyrrolo[2,3-c]quinoline-1-propyl carboxylate] | 0.1 to 1 |  |
| CCCOC(=O)c1c[nH]c2c(=O)[nH]c3ccc(S(=O)(=O)N(C)C4CCS(=O)(=O)CC4)cc3c12 [Compound 132, 8-[(1,1-Dioxo-hexahydro-1,6-thiopyran-4-yl)-methyl-sulfamoyl]-4-oxo-4,5-dihydro-3H-pyrrolo[2,3-c]quinoline-1-propyl carboxylate] | 1 to 10 |  |
| CCOC(=O)c1c[nH]c2c(=O)[nH]c3ccc(S(=O)(=O)Nc4cccc(C)c4)cc3c12 [Compound 5, 4-Oxo-8-m-tolylsulfamoyl-4,5-dihydro-3H-pyrrolo[2,3-c]quinoline-1-ethyl carboxylate] | 0.1 to 1 |  |
| CCOC(=O)c1c[nH]c2c(=O)[nH]c3ccc(S(=O)(=O)Nc4ccc(OC)cc4)cc3c12 [Compound 9, 8-(4-Methoxy-phenylsulfamoyl)-4-oxo-4,5-dihydro-3H-pyrrolo[2,3-c]quinoline-1-ethyl carboxylate] | 0.1 to 1 |  |
| CCOC(=O)c1c[nH]c2c(=O)[nH]c3ccc(-c4cccc(C#N)c4)cc3c12 [Compound 239, 8-(3-Cyano-phenyl)-4-oxo-4,5-dihydro-3H-pyrrolo[2,3-c]quinoline-1-ethyl carboxylate] | 0.1 to 1 |  |
| CCCOC(=O)c1c[nH]c2c(=O)[nH]c3ccc(S(=O)(=O)N(C)CCNC)cc3c12 [Compound 139, 8-[Methyl-(2-methylamino-ethyl)-sulfamoyl]-4-oxo-4,5-dihydro-3H-pyrrolo[2,3-c]quinoline-1-propyl carboxylate hydrochloride] | < 0.1 |  |
